In publication PMC9709641 (Frontiers in Plant Science, 2022):

How the values were obtained:
α-glucosidase [1] = assay: PNPG hydrolysis assay, absorbance at […] nm; type: biochemical
α-glucosidase [2] = assay: PNPG hydrolysis assay, absorbance at […] nm; maximum inhibition […] at […]; type: biochemical

| Molecule | IC50 (α-glucosidase [1]) | IC50 (α-glucosidase [2]) |
| --- | --- | --- |
| N#CC(O)c1ccc(O)cc1 (centres unmarked) [4-hydroxymandelonitrile] | 15.8 µM |  |
| eleutheroside E |  | 0.19 µM |
